Measured values: patent US4552874A, “Pyrazolooxazines, pyrazolothiazines, and pryazoloquinolines and their use as medicaments” (Bayer Aktiengesellschaft, priority 1982, dated 1985)

Tests used:
[1] = systemic administration (for example orally); cited from earlier work
[2] = system: cyclooxygenase; conditions: cited from earlier work
[3] = system: melanoma B 16; test: Inhibition of the initiation of pulmonary metastases in melanoma B 16; assay type: in vivo; conditions: melanoma B 16, mouse, three i.p. administrations of 1 mg/kg
Description: The compounds according to the invention are also active in vivo. […] The compounds according to the invention also reduce the formation of oedema in the model of carrageenan inflammation, (compare Table 3) and inhibit the formation of metastases from B-16 melanoma (method of Honn, et. al. Science 212, 1270, 1981).

[4] = target: T1, Lipoxygenase in platelet (Homo sapiens, UniProt P18054); test: Inhibition of lipoxygenase in washed human platelets (HETE synthesis from radioactively labelled arachidonic acid); assay type: cell-based; conditions: in vitro
T1 construct: the metabolism of radioactively labelled arachidonic acid on washed human platelets is used; endogenous in cells; host or cells: washed human platelets
T1 sequence (P18054 1-663): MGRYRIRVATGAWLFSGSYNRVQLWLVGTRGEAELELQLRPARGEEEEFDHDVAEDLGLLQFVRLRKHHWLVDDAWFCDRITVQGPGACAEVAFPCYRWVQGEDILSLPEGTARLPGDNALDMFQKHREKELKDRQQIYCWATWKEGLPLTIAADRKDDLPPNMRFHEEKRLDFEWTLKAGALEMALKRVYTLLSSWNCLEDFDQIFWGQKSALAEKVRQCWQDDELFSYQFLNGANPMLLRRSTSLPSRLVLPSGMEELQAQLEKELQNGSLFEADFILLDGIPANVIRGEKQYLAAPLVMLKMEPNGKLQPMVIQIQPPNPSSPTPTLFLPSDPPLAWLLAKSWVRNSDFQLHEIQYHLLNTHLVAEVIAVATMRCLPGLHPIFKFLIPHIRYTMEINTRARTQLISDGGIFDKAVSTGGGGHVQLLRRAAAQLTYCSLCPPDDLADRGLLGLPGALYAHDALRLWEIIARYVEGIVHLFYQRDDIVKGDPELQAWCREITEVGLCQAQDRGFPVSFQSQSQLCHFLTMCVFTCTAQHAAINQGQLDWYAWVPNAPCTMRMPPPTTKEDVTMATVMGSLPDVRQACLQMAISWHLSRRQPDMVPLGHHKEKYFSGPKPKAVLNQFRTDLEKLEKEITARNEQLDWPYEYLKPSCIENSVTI
Method: In this test method, the metabolism of radioactively labelled arachidonic acid on washed human platelets is used. In this in vitro test, the radioactively labelled metabolites are extracted from the reaction mixture and separated by thin-layer chromatography. The autoradiogram is evaluated on a thin-layer scanner. Under these test conditions, the labelled metabolites are separated from the unreacted arachidonic acid and can then be evaluated quantitatively. The distribution of radioactivity over the products of cyclooxygenase formed during the metabolism, thromboxane B2 (TXB2) and 12-hydroxy-5,8,10-heptadecatrienoic acid (HHT) and the product of lipoxygenase, 12-hydroxy-5,8,11,14-eicosatetraenoic acid (HETE), under the influence of the inhibitors provides a measure of the inhibition of the enzymes.
The inhibition of lipoxygenase by the compounds according to the invention can be measured by the inhibition of synthesis of HETE. It emerges that the synthesis of TXB2 and of HHT remains unaffected, whilst the conversion of arachidonic acid decreases. […] (Compare Table 1).

[5] = system: Lipoxygenase in PMN Leucocytes; test: Inhibition of lipoxygenase in PMN leucocytes (liberation of 5-HETE and leukotriene B4); assay type: cell-based, humans and rabbits; conditions: in vitro
Method: The polymorphonuclear leucocytes of humans and of rabbits metabolise arachidonic acid to 5-hydroxy-5,8,11,14-eicosatetraenoic acid (5-HETE) and leukotriene B4 (5S, 12R-dihydroxy-6 cis, 8,10-trans-14 cis-eicosatetraenoic acid). The inhibition of the liberation of 5-HETE and leukotriene B4 from the leucocytes provides a measure of the lipoxygenase-inhibitory effect of the compounds according to the invention. (Compare Table 1).
The test with human leucocytes is carried out by the method of Borgeat and Samuelsson (j. Biol. Chem. 254; 2643, 1979 and Proc. Natl. Acad. Sci. USA, 76, 2148 (1979), and with rabbit leucocytes by the method of Walker and Parish (Inter. Archs. Allergy appl. Immun. 66, 83, 1981).

[6] = system: prostacyclin synthesis in strips of rabbit aorta; test: Stimulation of prostacyclin synthesis in strips of rabbit aorta; assay type: cell-based; conditions: Oryctolagus cuniculus, 1 h, read-out: Stimulation in % compared to control (prostacyclin synthesis); for activation at 2 µg/mL: 2.10^6 g/ml of substance

| Minimum concentration (g/ml) for inhibition of Lipoxygenase in platelet [4] | Structure (SMILES) | Minimum concentration (g/ml) for inhibition of Lipoxygenase in PMN Leucocytes [5] | other results |
| --- | --- | --- | --- |
| – | NC1=NN(c2cccc(C(F)(F)F)c2)CC1 [3-amino-1-(m-trifluoromethylphenyl)-2-pyrazoline] | – | toxic side effects, in words [1]: toxic side effects on systemic administration (for example orally); action of known lipoxygenase inhibitors, in words [2]: either also act as inhibitors of cyclooxygenase or only act at very high concentrations |
| – | c1ccc2cc3c(cc2c1)Nc1[nH]ncc1O3 [Compound 18] | – | % Inhibition of the initiation of pulmonary metastases [3]: 36% |
| 10^-6 g/ml | Cn1ncc2c1Nc1cc(Cl)ccc1O2 | 10^-6 g/ml | – |
| – | CCCCCC#CCC#CCC#CCC#CCCCC(=O)O [5,8,11,14-eicosatetraynoic acid] | – | action of known lipoxygenase inhibitors, in words [2]: either also act as inhibitors of cyclooxygenase or only act at very high concentrations |
| – | O=C1CCN(c2ccccc2)N1 [phenidone] | – | action of known lipoxygenase inhibitors, in words [2]: either also act as inhibitors of cyclooxygenase or only act at very high concentrations |
| – | CN1c2ccccc2Oc2cnn(C)c21 [Compound 24] | – | activation at 10 µg/mL ([6]; at 10^-5 g/ml substance concentration): 100% |
| – | c1cnc2c(c1)Oc1cn[nH]c1N2 [Compound 17] | – | activation at 2 µg/mL [6]: 200% |
| – | CC(Cc1ccc(O)c(O)c1)C(C)Cc1ccc(O)c(O)c1 (stereo not shown) [nordihydroguaiaretic acid] | – | action of known lipoxygenase inhibitors, in words [2]: either also act as inhibitors of cyclooxygenase or only act at very high concentrations |
| – | Cn1ncc2c1Nc1cc3ccccc3cc1O2 [Compound 19] | – | % Inhibition of the initiation of pulmonary metastases [3]: 30% |
| 10^-6 g/ml | Cc1ccc2c(c1)Nc1[nH]ncc1S2 | 10^-6 g/ml | – |
| 10^-6 g/ml | c1ccc2cc3c(cc2c1)Nc1[nH]ncc1O3 [drawing 29] | 10^-6 g/ml | – |
| 10^-6 g/ml | Clc1ccc2c(c1)Nc1[nH]ncc1O2 [drawing 13] | 10^-6 g/ml | – |
| 10^-6 g/ml | Cn1ncc2c1Nc1ccccc1O2 | 10^-6 g/ml | – |
| 10^-6 g/ml | Cc1ccc2c(c1)Nc1[nH]ncc1O2 [drawing 14] | 10^-6 g/ml | – |
| – | c1ccc2c(c1)Nc1[nH]ncc1S2 [Compound 12] | – | activation at 2 µg/mL [6]: 80% |
